# Experimental data taken from patent US20030228675A1, “ATM related kinase ATX, nucleic acids encoding same and methods of use” (priority 2002, published 2003).
# Columns and labels:
# Type in all cases: cell-based, human
# U2OS cells [1] = assay: Clonogenic survival assay of oligonucleotide-transfected cells
# Experimental: To address concerns related to potential non-specific effects of ATXKI expression on cellular functions, an antisense oligonucleotide-based approach to reduce the level of ATX expression in U2OS cells was developed. The cells were mock transfected, or transfected with sense (S) or antisense (AS) oligonucleotides, and then treated for 24 h with various genotoxic agents. The cells were then trypsinized and replated, and clonogenic survival was analyzed after 10 days in culture. The results obtained with AS-treated cells were strikingly similar to those obtained with the ATXKI-expressing cells (FIGS. 2A-C). While transfection of U2OS cells with the S oligonucleotide reduced the basal level of colony outgrowth by 25%, treatment with the AS oligonucleotide decreased basal clonogenic activity by 75% (FIG. 2C, right panel). […] The reduction in ATX protein caused by AS treatment ranged from 50-90% in over 10 independent trials.
# (§1) To prepare recombinant HA-tagged ATX and ATM proteins, HEK 293T cells were plated onto 60-mm dishes (9×10^5 cells per dish), and were transfected with 5 μg pcDNA3.1 (empty vector), HA-ATXWT, HA-ATXKI, or HA-ATMWT plasmid DNAS. Transfections were performed with the Fugene 6 transfection reagent (Roche), according to the manufacturer's instructions. For NMD assays (see Example 9, below), U2OS cells were seeded onto 100 mm dishes (1×10^6 cells per dish). […]
# U2OS cells were seeded into 60 mm dishes (1×10^5 cells per dish) in complete medium. […] To quantitate the outgrowth of drug-resistant cells, the Coomassie Blue-bound protein was solubilized at 37° C. with 0.1 M NaOH, and the soluble material was analyzed by absorbance spectroscopy at a wavelength of 590 nm. […] Drug-resistant colonies were stained with Coomassie Blue after 10 days in culture, and the samples were analyzed with Image Pro Plus software to quantitate cell density. […]
# U2OS cells [2] = assay: Cell-cycle distribution by flow cytometry
# Experimental: (§2) Since p53 plays a central role in activation of the G1 checkpoint, and influences S, G2, and M checkpoints as well (Giaccia and Kastan, Genes & Development 12:2973-2983 (1998); Ko and Prives, supra, 1996), a functional deficiency of ATX might alter the cell-cycle arrest responses to IR and other genotoxic agents. To test this possibility, U2OS cells were pre-treated with S or AS oligonucleotides, exposed to IR, and cell-cycle distributions at 24 h post-irradiation were determined.
# The G2 checkpoint inhibitor was added to the culture medium at 8 h prior to harvest for determination of cell-cycle distributions (FIG. 3E, left panel), and immunoblotting for ATX expression (right panel).
# ATX = assay: Protein levels in oligonucleotide-treated cells by immunoblotting; settings: U2OS
# Experimental: as §1, with “dish). After 20 h, cells were transfected with 1.5 μg of pmCMV-Gl test plasmid, either Norm or 39Ter (Ishigaki et al., 2001); 1.5 μg of phCMV-MUP reference plasmid (Ishigaki et al., Cell 106:607-617 (2001)); and 7 μg of empty plasmid (pcDNA 3.1), plasmids encoding HA-ATMWT, HA-ATMKI, HA-ATXWT or HA-ATXKI.” for “dish).”
# as §2, with “determined. […]” for “determined.”
substance,measurement,setting,value
"5′-AGCAAGCTCCCTCCTGTCTC-3′ (all phosphorothioate, sugars by position and methylation of C not given here) [AS oligonucleotide, ATX antisense phosphorothioate oligonucleotide complementary to ATX nucleotides 210-229]",sensitivity to suppressive effects of IR and UV on clonogenic survival,U2OS cells [1]; IR and UV treatments,significantly more sensitive
same,decrease of basal level of colony outgrowth (basal clonogenic activity),"U2OS cells [1]; non-irradiated, 10 days in culture",75%
same,cell-cycle distribution after IR exposure,U2OS cells [2]; 24 h post-irradiation,arrested primarily in G2/M phase
same,subpopulation with <2N DNA content (apoptotic cells),U2OS cells [2]; no IR,increased subpopulation
same,cell-cycle distribution in the absence of IR,"U2OS cells [2]; no IR, versus S oligonucleotide","reduction in the percentage of G1 phase cells, and a concomitant accumulation of G2/M phase cells"
same,expression levels of control proteins ATM and PLC-γ1,ATX; immunoblot,no significant change
same,reduction in ATX protein,ATX; over 10 independent trials,50-90%
